For 35 compounds, melting point results are on record in patent US6545009B1, “Retinoid-related receptor function regulating agent” (Takeda Chemical Industries, Ltd., priority 1998, dated 2003).

As a reminder, the melting point is the temperature, or range, at which the solid turns liquid. The compound `CCOC(=O)c1ccc(-c2coc(-c3ccc(Cl)cc3)n2)cc1` [Example 6, ethyl 4-[2-(4-chlorophenyl)-4-oxazolyl)benzoate] registered a melting point of 153 to 154 °C.

On to `CCOC(=O)c1ccc(-c2coc(-c3ccccc3)n2)cc1` [Example 5, ethyl 4-(2-phenyl-4-oxazolyl)benzoate], for which the melting point was in the range of 110 to 112 °C.

The compound `O=C(O)c1cccc(-c2nc(-c3ccc(F)c(F)c3)cs2)c1` [Example 71, 3-[4-(3,4-difluorophenyl)-2-thiazolyl]benzoic acid] registered a melting point of 255 to 256 °C.

For `COC(=O)c1ccc(-c2nc(-c3ccccc3)co2)cc1` [Example 4, methyl 4-(4-phenyl-2-oxazolyl)benzoate], the melting point was 175 to 176 °C.

As for `CCOC(=O)c1ccc(-c2coc(-c3ccc(C(F)(F)F)cc3)n2)cc1` [Example 19, ethyl 4-[2-(4-trifluoromethylphenyl)-4-oxazolyl]benzoate], the melting point was 168 to 170 °C.

In turn, `O=C(O)c1ccc(-c2nc(-c3ccccc3)co2)cc1` [Example 11, 4-(4-phenyl-2-oxazolyl]benzoic acid] gave a melting point of 275 to 276 °C.

For the compound `CCOC(=O)c1cccc(-c2nc(-c3cc(C)oc3C)cs2)c1` [Example 49, ethyl 3-[4-(2,5-dimethyl-3-furyl)-2-thiazolyl]benzoate], the melting point fell in the range of 100 to 101 °C.

`COC(=O)c1ccc(-c2nc(-c3ccc(OC(F)(F)F)cc3)cs2)cc1` [Example 41, methyl 4-[4-(4-trifluoromethoxyphenyl)-2-thiazolyl]benzoate] registered a melting point of 138 to 139 °C.

Compound `O=C(O)c1ccc(-c2nc(-c3ccccc3C(F)(F)F)cs2)cc1` [Example 60, 4-[4-(2-trifluoromethylphenyl)-2-thiazolyl]benzoic acid] came in with a melting point of 225 to 227 °C.

The compound `COC(=O)c1cccc(-c2nc(-c3cccc(C(F)(F)F)c3)cs2)c1` [Example 45, methyl 3-[4-(3-trifluoromethylphenyl)-2-thiazolyl]benzoate] returned a melting point of 105 to 106 °C.

`CCCCc1ccc(-c2csc(-c3ccc(C(=O)O)cc3)n2)cc1` [Example 99, 4-[4-(4-butylphenyl)-2-thiazolyl]benzoic acid] returned a melting point of 263 to 265 °C.

Take `O=C(O)c1ccc(-c2csc(-c3ccncc3)n2)cc1` [Example 59, 4-[2-(4-pyridyl)-4-thiazolyl]benzoic acid]: the melting point was greater than 300 °C.

Turning to `O=C(O)c1ccc(-c2nc(-c3ccccn3)cs2)cc1` [Example 61, 4-[4-(2-pyridyl)-2-thiazolyl]benzoic acid], the melting point is greater than 300 °C.

In the case of `O=C(O)c1ccc(-c2nc(-c3cccnc3)cs2)cc1` [Example 57, 4-[4-(3-pyridyl)-2-thiazolyl]benzoic acid], the melting point fell in the range of 303 to 304 °C.

For `COc1ccc(-c2coc(-c3ccc(C(=O)O)cc3)n2)cc1` [Example 10, 4-[4-(4-methoxyphenyl)-2-oxazolyl]benzoic acid], the melting point fell in the range of 286 to 287 °C.

In turn, `Br.COC(=O)c1ccc(-c2nc(-c3cccnc3)cs2)cc1` [Example 34, methyl 4-[4-(3-pyridyl)-2-thiazolyl]benzoate hydrobromide] gave a melting point of 241 to 242 °C.

As for `COC(=O)c1ccc(-c2nc(-c3cccc(Cl)c3)cs2)cc1` [Example 43, methyl 4-[4-(3-chlorophenyl)-2-thiazolyl]benzoate], the melting point lay within 150 to 151 °C.

Take `COC(=O)c1ccc(-c2nc(-c3ccc(Cl)cc3)co2)cc1` [Example 1, methyl 4-[4-(4-chlorophenyl)-2-oxazolyl]benzoate]: the melting point lay in the range of 183 to 184 °C.

In turn, `CCOC(=O)c1cccc(-c2nc(-c3cc(Cl)sc3Cl)cs2)c1` [Example 81, ethyl 3-[4-(2,5-dichloro-3-thienyl)-2-thiazolyl]benzoate] returned a melting point of 125 to 126 °C.

Take `COC(=O)c1ccc(-c2nc(-c3ccc(Br)cc3)cs2)cc1` [Example 75, methyl 4-[4-(4-bromophenyl)-2-thiazolyl]benzoate]: the melting point fell in the range of 206 to 207 °C.

`Br.CCOC(=O)c1ccc(-c2csc(-c3ccncc3)n2)cc1` [Example 36, ethyl 4-[2-(4-pyridyl)-4-thiazolyl]benzoate hydrobromide] showed a melting point of 248 to 250 °C.

`Cc1ccc(-c2csc(-c3ccc(C(=O)O)cc3)n2)cc1` [Example 56, 4-[4-(4-methylphenyl)-2-thiazolyl]benzoic acid] returned a melting point of 289 to 290 °C.

`CCOC(=O)c1ccc(-c2csc(-c3ccc(Cl)cc3)n2)s1` [Example 39, ethyl 5-[2-(4-chlorophenyl)-4-thiazolyl]-2-thienylcarboxylate] had a melting point of 234 to 236 °C.

For `COC(=O)c1cccc(-c2nc(-c3cccc(OC(F)(F)F)c3)cs2)c1` [Example 50, methyl 3-[4-(3-trifluoromethoxyphenyl)-2-thiazolyl]benzoate], the melting point lay in the range of 84 to 85 °C.

Turning to `O=C(O)c1ccc(-c2nc(-c3ccccc3C(F)(F)F)co2)cc1` [Example 15, 4-[4-(2-trifluoromethylphenyl)-2-oxazolyl]benzoic acid], the melting point lay within 264 to 265 °C.

`COC(=O)c1ccc(-c2nc(-c3ccc(OC(F)F)cc3)co2)cc1` [Example 18, methyl 4-[4-(4-difluoromethoxylphenyl)-2-oxazolyl]benzoate] came in with a melting point of 160 to 161 °C.

For `CCOC(=O)c1ccc(-c2csc(-c3ccccc3)n2)cc1` [Example 102, ethyl 4-(2-phenyl-4-thiazolyl]benzoate], the melting point was 72 to 73 °C.

For `COC(=O)c1ccc(-c2nc(-c3cc(Cl)sc3Cl)cs2)cc1` [Example 80, methyl 4-[4-(2,5-dichloro-3-thienyl)-2-thiazolyl]benzoate], the melting point lay within 149 to 150 °C.

For `COC(=O)c1ccc(-c2nc(-c3cccc(OC(F)(F)F)c3)cs2)cc1` [Example 40, methyl 4-[4-(3-trifluoromethoxyphenyl)-2-thiazolyl]benzoate], the melting point was 132 to 134 °C.

With `COC(=O)c1ccc(-c2nc(-c3cc(C(F)(F)F)cc(C(F)(F)F)c3)co2)cc1` [Example 17, methyl 4-[4-[3,5-bis(trifluoromethyl)phenyl]-2-oxazolyl]benzoate], the melting point lay within 180 to 181 °C.

`O=C(O)c1ccc(-c2coc(-c3ccc(Cl)cc3)n2)cc1` [Example 13, 4-[2-(4-chlorophenyl)-4-oxazolyl]benzoic acid]: the melting point lay within 288 to 289 °C.

`O=C(O)c1ccc(-c2nc(-c3ccncc3)cs2)cc1` [Example 58, 4-[4-(4-pyridyl)-2-thiazolyl]benzoic acid] registered a melting point greater than 300 °C.

Take `COC(=O)c1ccc(-c2nc(-c3ccc(Cl)s3)co2)cc1` [Example 7, methyl 4-[4-(5-chloro-2-thienyl)-2-oxazolyl]benzoate]: the melting point fell in the range of 189 to 190 °C.

Compound `COC(=O)c1ccc(-c2nc(-c3cc(C)oc3C)cs2)cc1` [Example 77, methyl 4-[4-(2,5-dimethyl-3-furyl)-2-thiazolyl]benzoate] registered a melting point of 103 to 105 °C.

`COC(=O)c1ccc(-c2nc(-c3cc(C)sc3C)cs2)cc1` [Example 79, methyl 4-[4-(2,5-dimethyl-3-thienyl)-2-thiazolyl]benzoate] yielded a melting point of 109 to 110 °C.
